# Measured values as given in the NIST ThermoML archive (doi:10.1021/acs.jced.7b00904).
# Numbers after ± are expanded uncertainties.
# Experiments:
# [1] = refractive index (Na D-line) (dimensionless); wn = mass fraction of the nth substance listed; conditions: 101.3 kPa, Liquid, Standard Abbe refractometry
# [2] = wn = mass fraction of the nth substance listed; conditions: 295 K, w2 = 0
smiles,measurement,setting,value
[I-].[Na+] [sodium iodide] + O,refractive index,"[1]; 296 K, w1 = 0.332",1.3939 ± 0.00059
same,refractive index,"[1]; 296 K, w1 = 0.359",1.40055 ± 0.00059
same,refractive index,"[1]; 296 K, w1 = 0.374",1.4045 ± 0.00059
same,refractive index,"[1]; 296 K, w1 = 0.39",1.40905 ± 0.00059
same,refractive index,"[1]; 296 K, w1 = 0.408",1.41365 ± 0.0007
same,refractive index,"[1]; 296 K, w1 = 0.427",1.4193 ± 0.00061
same,refractive index,"[1]; 296 K, w1 = 0.449",1.426 ± 0.0006
same,refractive index,"[1]; 296 K, w1 = 0.46",1.4295 ± 0.00059
same,refractive index,"[1]; 296 K, w1 = 0.472",1.43335 ± 0.00059
same,refractive index,"[1]; 296 K, w1 = 0.485",1.4376 ± 0.00058
same,refractive index,"[1]; 296 K, w1 = 0.498",1.4421 ± 0.00058
same,refractive index,"[1]; 296 K, w1 = 0.513",1.44705 ± 0.00058
same,refractive index,"[1]; 296 K, w1 = 0.528",1.4523 ± 0.00059
same,refractive index,"[1]; 296 K, w1 = 0.544",1.4581 ± 0.00059
same,refractive index,"[1]; 296 K, w1 = 0.56",1.4648 ± 0.00059
same,refractive index,"[1]; 296 K, w1 = 0.579",1.472 ± 0.00058
same,refractive index,"[1]; 296 K, w1 = 0.598",1.4797 ± 0.00058
same,refractive index,"[1]; 298 K, w1 = 0.498",1.4428 ± 0.00058
same,refractive index,"[1]; 298 K, w1 = 0.512",1.44745 ± 0.00059
same,refractive index,"[1]; 298 K, w1 = 0.518",1.44985 ± 0.00059
same,refractive index,"[1]; 298 K, w1 = 0.524",1.45195 ± 0.00059
same,refractive index,"[1]; 298 K, w1 = 0.53",1.45405 ± 0.00059
same,refractive index,"[1]; 298 K, w1 = 0.536",1.45645 ± 0.00059
same,refractive index,"[1]; 298 K, w1 = 0.543",1.45915 ± 0.0006
same,refractive index,"[1]; 298 K, w1 = 0.549",1.4615 ± 0.0006
same,refractive index,"[1]; 298 K, w1 = 0.556",1.46395 ± 0.00058
same,refractive index,"[1]; 298 K, w1 = 0.563",1.4666 ± 0.00058
same,refractive index,"[1]; 298 K, w1 = 0.57",1.4694 ± 0.00059
same,refractive index,"[1]; 298 K, w1 = 0.577",1.4721 ± 0.00058
same,refractive index,"[1]; 298 K, w1 = 0.585",1.4744 ± 0.00058
O [water] + N#C[S-].[K+],surface tension liquid-gas,[2]; Wilhelmi plate,72.28 ± 0.4 mN/m
same,mass density,"[2]; 101.3 kPa, Liquid, Buoyancy - hydrostatic balance",999 ± 6 kg/m3
same,viscosity,"[2]; 101.3 kPa, Liquid, Concentric cylinders viscometry",0.975 ± 0.07 mPa·s
same,refractive index,"[1]; 293 K, w2 = 0",1.3333 ± 0.00058
same,refractive index,"[1]; 298 K, w2 = 0",1.3326 ± 0.00058
same,refractive index,"[1]; 303 K, w2 = 0",1.3321 ± 0.00058
same,refractive index,"[1]; 308 K, w2 = 0",1.33165 ± 0.00058
same,refractive index,"[1]; 313 K, w2 = 0",1.33085 ± 0.00058
